Read-outs that look alike come from different tables or passages of the source.
Experiments:
[1] = molecular target: K-Ras^G12C : hSOS1 interaction (Homo sapiens, UniProt Q07889); assay: Biochemical assay 1: K-Ras^G12C interaction assay with hSOS1 (HTRF); format: binding; details: for IC50: E-notation values, unit inferred, read-out: Assay 1 (KRAS-SOS interaction) IC50; for inhibition at 20 µM: read-out: Assay 1 (KRAS-SOS Interaction) activity expressed as % inhibition at 20 μM
[2] = molecular target: human SOS1 (loading of human K-Ras^G12C-GDP with fluorescent GTP-analog) (Homo sapiens, UniProt Q07889); assay: Biochemical assay 3: K-Ras^G12C activation assay by hSOS1 (HTRF); details: for inhibition at 20 µM: read-out: Assay 3 (KRAS-Activation by SOS no GTP) activity expressed as % inhibition at 20 μM
[3] = E-notation values, unit inferred, read-out: Assay 3 (KRAS-Activation) IC50
[4] = no GTP, read-out: Assay 3 (KRAS-Activation by SOS no GTP) activity expressed as IC50

SMILES	IC50 [1]	IC50 [2, 3]	inhibition at 20 µM [1]	inhibition at 20 µM ([2]; no GTP)	IC50 [2, 4]
COc1cc2nc(C)nc(NC(C)c3ccc(-c4ccccc4CN(C)C)s3)c2cc1OC (single isomer, unassigned) [Example 390, N-[1-(5-{2-[(dimethylamino)methyl]phenyl}thiophen-2-yl)ethyl]-6,7-dimethoxy-2-methylquinazolin-4-amine]	5 µM	12.9 µM	–	–	–
COc1cc2nc(C)nc(NC(C)c3ccc(-c4ccccc4CN(C)C)s3)c2cc1OC (single isomer, unassigned) [Example 391, N-[1-(5-{2-[(dimethylamino)methyl]phenyl}thiophen-2-yl)ethyl]-6,7-dimethoxy-2-methylquinazolin-4-amine]	0.0155 µM	0.0379 µM	–	–	–
COc1cc2nc(C)nc(NC(C)c3ccc(=O)[nH]c3)c2cc1OC (single isomer, unassigned; enantiomer 1) [Example 227, 5-{1-[(6,7-dimethoxy-2-methylquinazolin-4-yl)amino]ethyl}pyridin-2(1H)-one, Enantiomer 1]	–	–	48%	34%	–
COc1cc2nc(C)nc(NC(C)c3c(C)ccc4[nH]ncc34)c2cc1OC (centres unmarked) [Example 7, 6,7-dimethoxy-2-methyl-N-[1-(5-methyl-1H-indazol-4-yl)ethyl]quinazolin-4-amine]	–	–	44%	33%	–
COc1cc2nc(C)nc(NC(C)c3ccc(-n4ccc(CCO)n4)o3)c2cc1OC (centres unmarked) [Example 226, 2-[1-(5-{1-[(6,7-dimethoxy-2-methylquinazolin-4-yl)amino]ethyl}furan-2-yl)-1H-pyrazol-3-yl]ethanol]	–	–	43%	24%	–
COc1cc2nc(C)nc(NC(C)c3ccc(C4=CCCC4)s3)c2cc1OC (centres unmarked) [Example 231, N-{1-[5-(cyclopent-1-en-1-yl)thiophen-2-yl]ethyl}-6,7-dimethoxy-2-methylquinazolin-4-amine]	–	–	56%	24%	–
COc1cc2nc(C)nc(NC(C)c3ccc(-c4ccc(CNC(=O)OC(C)(C)C)o4)s3)c2cc1OC (centres unmarked) [Example 236, tert-butyl {[5-(5-{1-[(6,7-dimethoxy-2-methylquinazolin-4-yl)amino]ethyl}thiophen-2-yl)furan-2-yl]methyl}carbamate]	–	–	37%	17%	–
COC(=O)c1cc(-c2ccc(C(C)Nc3nc(C)nc4cc(OC)c(OC)cc34)s2)nn1C (centres unmarked) [Example 237, methyl 3-(5-{1-[(6,7-dimethoxy-2-methylquinazolin-4-yl)amino]ethyl}thiophen-2-yl)-1-methyl-1H-pyrazole-5-carboxylate]	–	–	31%	10%	–
COc1cc2nc(C)nc(NC(C)c3ccc(-c4ccc(F)cc4CNC(=O)c4cc5ccccc5[nH]4)s3)c2cc1OC (centres unmarked) [Example 296, N-[2-(5-{1-[(6,7-dimethoxy-2-methylquinazolin-4-yl)amino]ethyl}thiophen-2-yl)-5-fluorobenzyl]-1H-indole-2-carboxamide]	–	–	34%	–	11.8 µM
COc1cc2nc(C)nc(NC(C)c3ccc(-c4ccccc4CN4CCN(C(=O)OC(C)(C)C)CC4)s3)c2cc1OC (centres unmarked) [Example 306, tert-butyl 4-[2-(5-{1-[(6,7-dimethoxy-2-methylquinazolin-4-yl)amino]ethyl}thiophen-2-yl)benzyl]piperazine-1-carboxylate]	–	–	45%	–	7.94 µM
COc1cc2nc(C)nc(NC(C)c3ccc(-c4ccccc4CNc4ccccc4)s3)c2cc1OC (centres unmarked) [Example 362, 6,7-dimethoxy-2-methyl-N-[1-(5-{2-[(phenylamino)methyl]phenyl}thiophen-2-yl)ethyl]quinazolin-4-amine]	–	–	26%	30%	–
COCCNCc1ccccc1-c1ccc(C(C)Nc2nc(C)nc3cc(OC)c(OC)cc23)s1 (centres unmarked) [Example 369, 6,7-dimethoxy-N-{1-[5-(2-{[(2-methoxyethyl)amino]methyl}phenyl)thiophen-2-yl]ethyl}-2-methylquinazolin-4-amine]	0.0995 µM	0.169 µM	–	–	–
COc1cc2nc(C)nc(NC(C)c3ccc(-c4ccccc4CNC4CC4)s3)c2cc1OC (centres unmarked) [Example 370, N-[1-(5-{2-[(cyclopropylamino)methyl]phenyl}thiophen-2-yl)ethyl]-6,7-dimethoxy-2-methylquinazolin-4-amine]	0.27 µM	0.363 µM	–	–	–
COC(=O)c1ccc2nc(C)nc(N[C@H](C)c3cccc(Cl)c3)c2c1 [Example 371, methyl 4-{[(1R)-1-(3-chlorophenyl)ethyl]amino}-2-methylquinazoline-6-carboxylate]	1.89 µM	3.35 µM	–	–	–
Cc1nc(N[C@H](C)c2cccc(Cl)c2)c2cc(CO)ccc2n1 [Example 373, (4-{[(1R)-1-(3-chlorophenyl)ethyl]amino}-2-methylquinazolin-6-yl)methanol]	1.52 µM	9.21 µM	–	–	–
COc1cc2nc(C)nc(NC(C)c3ccc(-c4ccccc4C(O)c4ccccc4)s3)c2cc1OC (centres unmarked) [Example 374, [2-(5-{1-[(6,7-dimethoxy-2-methylquinazolin-4-yl)amino]ethyl}thiophen-2-yl)-phenyl](phenyl)methanol]	1.6 µM	6.5 µM	–	–	–

SMILES	IC50 [1]	IC50 [2, 3]	inhibition at 20 µM [1]	inhibition at 20 µM ([2]; no GTP)	IC50 [2, 4]
COc1cc2nc(C)nc(NC(C)c3ccc(-c4ccccc4C(O)Cc4ccccc4)s3)c2cc1OC (centres unmarked) [Example 376, 1-[2-(5-{1-[(6,7-dimethoxy-2-methylquinazolin-4-yl)amino]ethyl}thiophen-2-yl)phenyl]-2-phenylethanol]	5.46 µM	17.9 µM	–	–	–
CCCCC(O)c1ccccc1-c1ccc(C(C)Nc2nc(C)nc3cc(OC)c(OC)cc23)s1 (centres unmarked) [Example 377, 1-[2-(5-{1-[(6,7-dimethoxy-2-methylquinazolin-4-yl)amino]ethyl}thiophen-2-yl)phenyl]pentan-1-ol]	5.14 µM	15.1 µM	–	–	–
C#CC(O)c1ccccc1-c1ccc(C(C)Nc2nc(C)nc3cc(OC)c(OC)cc23)s1 (centres unmarked) [Example 378, 1-[2-(5-{1-[(6,7-dimethoxy-2-methylquinazolin-4-yl)amino]ethyl}thiophen-2-yl)phenyl]prop-2-yn-1-ol]	0.43 µM	1.45 µM	–	–	–
COc1cc2nc(C)nc(NC(C)c3ccc(-c4ccccc4C(O)C(C)C)s3)c2cc1OC (centres unmarked) [Example 379, 1-[2-(5-{1-[(6,7-dimethoxy-2-methylquinazolin-4-yl)amino]ethyl}thiophen-2-yl)phenyl]-2-methylpropan-1-ol]	0.568 µM	1.63 µM	–	–	–
COc1cc2nc(C)nc(NC(C)c3ccc(-c4ccccc4C(O)C(F)(F)F)s3)c2cc1OC (centres unmarked) [Example 380, 1-[2-(5-{1-[(6,7-dimethoxy-2-methylquinazolin-4-yl)amino]ethyl}thiophen-2-yl)phenyl]-2,2,2-trifluoroethanol]	0.937 µM	2.74 µM	–	–	–
COc1cc2nc(C)nc(NC(C)c3cc(C)c(-c4cnc5n4CCC5)s3)c2cc1OC (centres unmarked) [Example 381, N-{1-[5-(6,7-dihydro-5H-pyrrolo[1,2-a]imidazol-3-yl)-4-methylthiophen-2-yl]ethyl}-6,7-dimethoxy-2-methylquinazolin-4-amine]	0.49 µM	2.33 µM	–	–	–
COc1cc2nc(C)nc(NC(C)c3ccc(-c4ccc(F)cc4CNC(=O)CO)s3)c2cc1OC (centres unmarked) [Example 382, N-[2-(5-{1-[(6,7-dimethoxy-2-methylquinazolin-4-yl)amino]ethyl}thiophen-2-yl)-5-fluorobenzyl]-2-hydroxyacetamide]	0.253 µM	0.748 µM	–	–	–
COCC(=O)NCc1cc(F)ccc1-c1ccc(C(C)Nc2nc(C)nc3cc(OC)c(OC)cc23)s1 (centres unmarked) [Example 383, N-[2-(5-{1-[(6,7-dimethoxy-2-methylquinazolin-4-yl)amino]ethyl}thiophen-2-yl)-5-fluorobenzyl]-2-methoxyacetamide]	0.984 µM	5.11 µM	–	–	–
COc1cc2nc(C)nc(NC(C)c3ccc(-c4cc(Cl)ccc4CNC(=O)OC(C)(C)C)s3)c2cc1OC (centres unmarked) [Example 387, tert-butyl [4-chloro-2-(5-{1-[(6,7-dimethoxy-2-methylquinazolin-4-yl)amino]ethyl}-thiophen-2-yl)benzyl]carbamate]	1.17 µM	8.32 µM	–	–	–
COc1cc2nc(C)nc(N[C@H](C)c3cccc(-c4ccnc(O)c4)c3)c2cc1OC [Example 388, 4-(3-{(1R)-1-[(6,7-dimethoxy-2-methylquinazolin-4-yl)amino]ethyl}phenyl)pyridin-2-ol]	0.205 µM	0.757 µM	–	–	–
COc1cc2nc(C)nc(NC(C)c3cccc(OCc4ccccc4)c3)c2cc1OC (centres unmarked) [Example 389, N-{1-[3-(benzyloxy)phenyl]ethyl}-6,7-dimethoxy-2-methylquinazolin-4-amine]	6.69 µM	16.9 µM	–	–	–
Cc1nc(N[C@H](C)c2cccc(Cl)c2)c2cc(C(C)(C)O)ccc2n1 [Example 392, 2-(4-{[(1R)-1-(3-chlorophenyl)ethyl]amino}-2-methylquinazolin-6-yl)propan-2-ol]	0.338 µM	1.52 µM	–	–	–
COc1cc2nc(C)nc(N[C@H](C)c3cccc(-c4ccccc4CC(N)=O)c3)c2cc1OC [Example 393, 2-(3′-{(1R)-1-[(6,7-dimethoxy-2-methylquinazolin-4-yl)amno]ethyl}biphenyl-2-yl)acetamide]	0.244 µM	1.04 µM	–	–	–
COc1cc2nc(C)nc(NC(C)c3ccc(-c4ccccc4CC(N)=O)s3)c2cc1OC (centres unmarked) [Example 394, 2-[2-(5-{1-[(6,7-dimethoxy-2-methylquinazolin-4-yl)amino]ethyl}thiophen-2-yl)phenyl]acetamide]	0.405 µM	2.29 µM	–	–	–
COc1cc2nc(C)nc(NC(C)c3ccc(-c4ccc(O)nc4)s3)c2cc1OC (centres unmarked) [Example 395, 5-(5-{1-[(6,7-dimethoxy-2-methylquinazolin-4-yl)amino]ethyl}thiophen-2-yl)pyridin-2-ol]	0.984 µM	1.02 µM	–	–	–

From patent US20240083857A1, “2-Methyl-Quinazolines” (Bayer Pharma Aktiengesellschaft, priority 2017, published 2024)
